Assay results published in publication PMC12413083, “Secondary metabolites isolated from Fernandoa adenophylla (Wall. ex G.Don) steenis as multitarget inhibitors of cholinesterases for the treatment of Alzheimer’s Disease, followed by molecular docking studies” (PLOS One, 2025).
Read-outs that look alike come from different tables or passages of the source.

Experiments:
[1] = molecular target: T1, equine serum butyrylcholinesterase (eqBuChE) (Equus caballus, UniProt P81908); assay: biochemical
T1 construct: equine serum (Equus caballus) BuChE (eqBuChE); purchased Sigma-Aldrich C3389; host or cells: equine serum
Method: (§1) Enzymes from Electrophorus electricus (eeAChE) (Sigma-Aldrich, Cat. No. C3389) and equine serum (Equus caballus) BuChE (eqBuChE) […]. Stock solutions of the test compounds were prepared in potassium phosphate buffer (0.1 M, pH 8.0). The reaction mixture consisted of Ellman’s reagent (5,5′-dithiobis (2-nitrobenzoic acid), DTNB), enzyme (0.03 U/mL of eeAChE or eqBuChE), and the test compound. Pre-incubation was performed at 30°C for 10 minutes, followed by the addition of 1 mM acetylthiocholine iodide (ATCI) or butyrylthiocholine iodide (BTCI) as substrates. The reaction mixture was further incubated for 15 minutes. […] All assays were conducted in triplicate. IC50 values were calculated by nonlinear regression of compound concentration versus percentage inhibition.
(§2) All experiments were performed in triplicate, and the results are expressed as SEM. IC50 values were determined using nonlinear regression analysis (GraphPad Prism). All statistical analyses were performed using GraphPad Prism version 9.5.1 (GraphPad Software, San Diego, CA, USA).

[2] = molecular target: T2, Electrophorus electricus acetylcholinesterase (eeAChE) (Electrophorus electricus, UniProt O42275); assay: biochemical; conditions: for Selectivity Index (SI): SI = IC50 of BChE/IC50 of AChE
T2 construct: purchased Sigma-Aldrich C3389
Method: as §1, §2

[3] = Ellman's method, mean ± SEM, n = 3, read-out: IC50 (μM) ± SEM eqBuChE
[4] = Ellman's method, mean ± SEM, n = 3, read-out: IC50 (μM) ± SEM (eeAChE)

T2 sequence (O42275 24-633): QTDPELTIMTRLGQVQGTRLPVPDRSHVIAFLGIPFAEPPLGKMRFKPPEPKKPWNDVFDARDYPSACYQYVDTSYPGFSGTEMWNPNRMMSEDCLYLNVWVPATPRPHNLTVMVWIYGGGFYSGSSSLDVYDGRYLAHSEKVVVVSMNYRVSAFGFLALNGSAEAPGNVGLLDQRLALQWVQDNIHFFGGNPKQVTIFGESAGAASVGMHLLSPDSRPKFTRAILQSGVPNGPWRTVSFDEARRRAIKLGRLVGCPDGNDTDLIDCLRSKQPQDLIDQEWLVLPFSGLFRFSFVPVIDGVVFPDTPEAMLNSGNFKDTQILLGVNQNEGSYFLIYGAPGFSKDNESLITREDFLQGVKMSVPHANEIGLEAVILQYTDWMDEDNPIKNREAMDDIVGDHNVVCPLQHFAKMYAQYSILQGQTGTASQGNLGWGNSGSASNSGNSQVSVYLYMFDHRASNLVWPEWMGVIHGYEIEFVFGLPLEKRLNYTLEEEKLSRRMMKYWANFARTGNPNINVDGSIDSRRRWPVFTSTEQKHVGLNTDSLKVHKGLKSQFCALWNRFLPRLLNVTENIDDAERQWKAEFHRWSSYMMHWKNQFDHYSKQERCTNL
T1 sequence (P81908 whole entry): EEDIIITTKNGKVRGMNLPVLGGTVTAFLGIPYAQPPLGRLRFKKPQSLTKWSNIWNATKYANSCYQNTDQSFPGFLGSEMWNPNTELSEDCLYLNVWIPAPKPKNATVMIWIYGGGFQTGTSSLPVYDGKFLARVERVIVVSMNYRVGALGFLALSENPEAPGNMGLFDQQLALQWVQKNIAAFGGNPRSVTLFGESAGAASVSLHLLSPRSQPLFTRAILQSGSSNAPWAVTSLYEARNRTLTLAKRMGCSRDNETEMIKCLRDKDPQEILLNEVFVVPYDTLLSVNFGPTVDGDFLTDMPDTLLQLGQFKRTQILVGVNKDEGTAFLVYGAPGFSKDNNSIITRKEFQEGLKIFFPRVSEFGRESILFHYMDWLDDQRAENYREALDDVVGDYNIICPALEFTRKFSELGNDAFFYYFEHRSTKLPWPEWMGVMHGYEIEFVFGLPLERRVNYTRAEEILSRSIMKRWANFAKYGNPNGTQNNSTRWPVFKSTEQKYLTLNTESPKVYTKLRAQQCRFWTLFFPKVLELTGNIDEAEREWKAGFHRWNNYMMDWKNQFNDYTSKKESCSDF

How did the IC50 [1] turn out when `CC(C)=CCC1=C(O)C(=O)c2ccccc2C1=O` [Lapachol (1), Lapachol] was run?
Its IC50 is 68.3 ± 1.06 µM.

And the IC50 [2]?
Its IC50 is 5.04 ± 0.24 µM.

What about the “Selectivity Index (SI)” value [2] of the same compound?
Its value is 13.6.

With `COC(=O)C1(O)c2ccccc2C(=O)C1(O)CC=C(C)C` (stereo not drawn) [Indanone derivative (5)] as the compound, how does the IC50 [1] read?
Its IC50 is 24.2 ± 1.04 µM.

What about the IC50 [2] of the same compound?
The IC50 was 53.2 ± 1.29 µM.

What about the “Selectivity Index (SI)” value [2] of the same compound?
Its value is 0.45.

Which results are given for `CC(C)=C(C)C1CC2(C)OC3=C(C(=O)c4ccccc4C3=O)C3C2C12C(=O)c1ccccc1C3(O)C2=O` (stereo not drawn) [Peshawaraquinone (3), Peshawaraquinone]?
IC50 [1, 3]: 8.39 ± 0.14 µM; IC50 [2, 4]: 0.9 ± 0.04 µM; Selectivity Index (SI) [2]: 9.3

Which results are given for `CC1(C)C=CC2=C(O1)C(=O)c1ccccc1C2=O` [Dehydro-α-lapachone (4), Dehydro-α-lapachone]?
IC50 [1, 3]: 55.6 ± 1.41 µM; IC50 [2, 4]: 2.64 ± 0.08 µM; Selectivity Index (SI) [2]: 21.1

How did the IC50 [1, 3] turn out when `CC1(C)CCC2=C(O1)C(=O)c1ccccc1C2=O` [α-Lapachone (2), α-Lapachone] was run?
The IC50 was 39.1 ± 0.97 µM.

And the IC50 [2, 4]?
The IC50 was 11 ± 0.97 µM.

And the “Selectivity Index (SI)” value [2]?
Its value is 3.6.
